In experiment [1] the test system is colon cancer cells (HCT116). Briefly: Cancer cell line growth inhibition (SRB assay). The format is cell-based. To be noted: Homo sapiens, HCT-116; read-out: Cancer Cell Line GI50 Range HCT116. (In general: The SRB assay estimates cell density from bound dye.)
The next experiment deals with TICs (Colon 12). Briefly: Colon tumor-initiating cell growth inhibition (Alamar Blue). The format is cell-based. The following applies: 216 h; Colon 12 TICs, 9 days; read-out: Tumor Initiating Cell GI50 Range Colon 12. Background: Resazurin is reduced to fluorescent resorufin, in cell work by metabolically active cells.
Another experiment relates to TICs (Ovarian 2393A). Briefly: Ovarian tumor-initiating cell growth inhibition (Alamar Blue). The following applies: 144 h; Ovarian 2393A TICs, 6 days; read-out: Tumor Initiating Cell GI50 Range Ovarain 2393A. Type of experiment: cell-based.
The target of a further experiment is T1, MUSK (Homo sapiens, UniProt O15146).
T1 construct: purchased Millipore Corporation
T1 sequence (O15146 24-869): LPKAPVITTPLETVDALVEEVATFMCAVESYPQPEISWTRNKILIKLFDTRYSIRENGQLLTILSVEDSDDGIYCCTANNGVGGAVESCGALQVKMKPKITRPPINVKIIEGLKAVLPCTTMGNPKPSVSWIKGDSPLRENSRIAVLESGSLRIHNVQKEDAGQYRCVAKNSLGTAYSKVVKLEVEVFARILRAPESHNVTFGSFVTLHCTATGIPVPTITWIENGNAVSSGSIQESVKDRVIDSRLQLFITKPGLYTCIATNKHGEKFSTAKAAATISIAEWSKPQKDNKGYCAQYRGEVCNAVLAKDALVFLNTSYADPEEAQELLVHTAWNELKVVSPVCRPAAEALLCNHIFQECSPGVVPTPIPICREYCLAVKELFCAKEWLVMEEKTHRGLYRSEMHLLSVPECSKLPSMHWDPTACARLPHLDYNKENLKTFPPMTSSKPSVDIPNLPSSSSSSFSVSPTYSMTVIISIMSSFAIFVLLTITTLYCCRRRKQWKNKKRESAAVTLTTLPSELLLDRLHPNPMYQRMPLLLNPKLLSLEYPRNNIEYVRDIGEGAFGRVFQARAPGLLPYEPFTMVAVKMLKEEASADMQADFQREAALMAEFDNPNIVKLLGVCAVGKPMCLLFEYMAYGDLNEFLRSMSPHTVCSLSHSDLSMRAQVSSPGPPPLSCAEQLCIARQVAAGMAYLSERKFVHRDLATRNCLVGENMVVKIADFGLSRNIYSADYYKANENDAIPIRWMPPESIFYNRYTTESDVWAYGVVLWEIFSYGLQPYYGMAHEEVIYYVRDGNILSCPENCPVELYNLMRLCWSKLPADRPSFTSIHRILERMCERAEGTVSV
Briefly: Panel of 270 human kinases (Millipore). Type of experiment: biochemical. On the procedure:
(§1) The inhibitory activity of selected compounds of the invention (A335, A405, A410, A261, A300 and A363) was evaluated against a panel of 270 different human kinase enzymes by Millipore Corporation. The % Inhibition was determined by the formula: % Inhibition=100×(1−(experimental value−background value)/(high activity control−background value)).

The next experiment concerns the target T2, MELK (Homo sapiens, UniProt Q14680).
T2 construct: purchased Millipore Corporation
Briefly: Panel of 270 human kinases (Millipore). The format is biochemical. On the procedure: as §1

Another experiment addresses T3, MAPK2 (Homo sapiens, UniProt P28482).
T3 construct: purchased Millipore Corporation
Briefly: Panel of 270 human kinases (Millipore). Type of experiment: biochemical. On the procedure:
as §1

Another experiment concerns the target T4, ALK (Homo sapiens, UniProt Q9UM73).
T4 construct: purchased Millipore Corporation
Briefly: Panel of 270 human kinases (Millipore). The format is biochemical. On the procedure: as §1

The next experiment concerns the target T5, cKit (V560G) (Homo sapiens, UniProt P10721, V560G).
T5 construct: purchased Millipore Corporation
Briefly: Panel of 270 human kinases (Millipore). The format is biochemical. On the procedure:
as §1

In the next experiment the target is T6, JNK3 (Homo sapiens, UniProt P53779).
T6 construct: purchased Millipore Corporation
Briefly: Panel of 270 human kinases (Millipore). Type of experiment: biochemical. On the procedure: as §1

The target of the next experiment is T7, Aurora-B (Homo sapiens, UniProt Q96GD4).
T7 construct: purchased Millipore Corporation
Nature of the experiment: Panel of 270 human kinases (Millipore). The format is biochemical. On the procedure: as §1

The target in a further experiment is T8, Met(Y1248C) (Homo sapiens, UniProt P08581, Y1230C).
T8 construct: purchased Millipore Corporation
T8 sequence (P08581 25-1408 isoform P08581-2 Y1248C limits assumed): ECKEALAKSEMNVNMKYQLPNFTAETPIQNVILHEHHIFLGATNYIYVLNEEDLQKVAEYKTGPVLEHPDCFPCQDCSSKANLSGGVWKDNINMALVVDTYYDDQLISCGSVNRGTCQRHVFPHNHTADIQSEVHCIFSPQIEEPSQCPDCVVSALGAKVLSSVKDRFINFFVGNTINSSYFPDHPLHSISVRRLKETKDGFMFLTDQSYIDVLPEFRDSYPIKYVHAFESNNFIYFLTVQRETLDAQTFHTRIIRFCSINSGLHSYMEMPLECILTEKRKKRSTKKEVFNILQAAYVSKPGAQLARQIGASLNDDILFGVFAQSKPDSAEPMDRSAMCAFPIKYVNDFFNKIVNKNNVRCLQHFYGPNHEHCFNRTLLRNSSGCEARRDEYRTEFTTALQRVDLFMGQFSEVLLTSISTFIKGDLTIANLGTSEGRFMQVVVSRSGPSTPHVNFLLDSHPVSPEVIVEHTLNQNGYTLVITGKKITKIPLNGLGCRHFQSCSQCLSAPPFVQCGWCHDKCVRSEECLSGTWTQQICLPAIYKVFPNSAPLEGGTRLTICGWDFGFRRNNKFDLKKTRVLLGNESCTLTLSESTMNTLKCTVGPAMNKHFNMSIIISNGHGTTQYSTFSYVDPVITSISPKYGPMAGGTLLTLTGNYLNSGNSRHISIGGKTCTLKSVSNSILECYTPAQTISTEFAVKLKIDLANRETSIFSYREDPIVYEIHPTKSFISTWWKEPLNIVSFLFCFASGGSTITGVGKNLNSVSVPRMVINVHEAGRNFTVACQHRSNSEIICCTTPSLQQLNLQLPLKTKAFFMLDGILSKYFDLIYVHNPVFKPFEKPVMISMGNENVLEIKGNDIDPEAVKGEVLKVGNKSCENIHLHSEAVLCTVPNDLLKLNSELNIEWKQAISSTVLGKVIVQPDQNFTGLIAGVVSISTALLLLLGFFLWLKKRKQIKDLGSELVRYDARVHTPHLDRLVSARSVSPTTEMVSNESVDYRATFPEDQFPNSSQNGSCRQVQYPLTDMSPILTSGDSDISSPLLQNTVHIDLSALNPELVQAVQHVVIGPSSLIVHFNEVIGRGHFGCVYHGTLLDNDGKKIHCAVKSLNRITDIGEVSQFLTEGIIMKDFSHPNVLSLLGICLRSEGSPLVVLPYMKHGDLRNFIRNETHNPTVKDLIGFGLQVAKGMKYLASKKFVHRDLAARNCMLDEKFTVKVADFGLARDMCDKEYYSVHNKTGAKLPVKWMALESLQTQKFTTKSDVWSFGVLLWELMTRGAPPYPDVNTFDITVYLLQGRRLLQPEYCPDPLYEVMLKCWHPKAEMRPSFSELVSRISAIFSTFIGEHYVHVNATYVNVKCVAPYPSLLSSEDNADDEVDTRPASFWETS
Briefly: Panel of 270 human kinases (Millipore). The format is biochemical. On the procedure: as §1

In a further experiment the test system is Breast cancer cells. Briefly: Cancer cell line growth inhibition (SRB assay). To be noted: Homo sapiens; MDA-MB-468; read-out: Cancer Cell Line GI50 Range MDA-MB-468. The format is cell-based.
Another experiment concerns the target T9, human TTK (Homo sapiens, UniProt P33981).
T9 construct: amino terminal GST fusion of full length human TTK; purchased Invitrogen
T9 sequence (P33981 1-857): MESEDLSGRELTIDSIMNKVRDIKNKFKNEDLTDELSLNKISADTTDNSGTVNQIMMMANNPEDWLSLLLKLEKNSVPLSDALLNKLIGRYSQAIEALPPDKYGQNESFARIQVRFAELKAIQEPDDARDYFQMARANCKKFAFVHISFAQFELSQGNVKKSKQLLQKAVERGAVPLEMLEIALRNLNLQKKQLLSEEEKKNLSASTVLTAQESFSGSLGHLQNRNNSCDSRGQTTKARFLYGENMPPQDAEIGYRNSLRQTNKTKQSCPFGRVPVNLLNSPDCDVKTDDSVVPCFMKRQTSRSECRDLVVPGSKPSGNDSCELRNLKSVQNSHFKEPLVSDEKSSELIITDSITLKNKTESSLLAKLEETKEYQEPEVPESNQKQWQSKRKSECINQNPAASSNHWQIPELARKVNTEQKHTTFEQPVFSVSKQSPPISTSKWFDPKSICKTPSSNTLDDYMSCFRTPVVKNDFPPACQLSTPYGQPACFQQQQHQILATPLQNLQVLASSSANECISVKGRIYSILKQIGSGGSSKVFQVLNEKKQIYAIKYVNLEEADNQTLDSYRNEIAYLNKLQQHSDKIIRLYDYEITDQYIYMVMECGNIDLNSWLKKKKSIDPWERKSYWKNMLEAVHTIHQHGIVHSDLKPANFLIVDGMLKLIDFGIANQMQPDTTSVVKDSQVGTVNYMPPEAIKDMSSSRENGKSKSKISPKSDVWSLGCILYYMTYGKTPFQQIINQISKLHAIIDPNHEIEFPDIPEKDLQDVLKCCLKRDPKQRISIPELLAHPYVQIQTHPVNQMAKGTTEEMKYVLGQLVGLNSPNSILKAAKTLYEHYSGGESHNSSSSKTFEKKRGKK
Briefly: TTK inhibition assay (indirect ELISA). Type of experiment: biochemical. To be noted: read-out: TTK IC50 Range. For orientation: ELISA stands for enzyme-linked immunosorbent assay.

For experiment [2], the system named is ovarian cancer cells (PA-1). Briefly: Cancer cell line growth inhibition (SRB assay). Type of experiment: cell-based. The following applies: Homo sapiens, PA-1; read-out: Cancer Cell Line GI50 Range PA-1.

Some results are limits rather than exact numbers.

As a reminder, the GI50 is the concentration at which growth is held to half of that of the control. For orientation: inhibition means the change of the read-out against control, counted positive when it falls. A low value points to a response near the control. What is called IC50 is the point on the concentration scale where inhibition reaches its midpoint.

T4 sequence (Q9UM73 19-1620): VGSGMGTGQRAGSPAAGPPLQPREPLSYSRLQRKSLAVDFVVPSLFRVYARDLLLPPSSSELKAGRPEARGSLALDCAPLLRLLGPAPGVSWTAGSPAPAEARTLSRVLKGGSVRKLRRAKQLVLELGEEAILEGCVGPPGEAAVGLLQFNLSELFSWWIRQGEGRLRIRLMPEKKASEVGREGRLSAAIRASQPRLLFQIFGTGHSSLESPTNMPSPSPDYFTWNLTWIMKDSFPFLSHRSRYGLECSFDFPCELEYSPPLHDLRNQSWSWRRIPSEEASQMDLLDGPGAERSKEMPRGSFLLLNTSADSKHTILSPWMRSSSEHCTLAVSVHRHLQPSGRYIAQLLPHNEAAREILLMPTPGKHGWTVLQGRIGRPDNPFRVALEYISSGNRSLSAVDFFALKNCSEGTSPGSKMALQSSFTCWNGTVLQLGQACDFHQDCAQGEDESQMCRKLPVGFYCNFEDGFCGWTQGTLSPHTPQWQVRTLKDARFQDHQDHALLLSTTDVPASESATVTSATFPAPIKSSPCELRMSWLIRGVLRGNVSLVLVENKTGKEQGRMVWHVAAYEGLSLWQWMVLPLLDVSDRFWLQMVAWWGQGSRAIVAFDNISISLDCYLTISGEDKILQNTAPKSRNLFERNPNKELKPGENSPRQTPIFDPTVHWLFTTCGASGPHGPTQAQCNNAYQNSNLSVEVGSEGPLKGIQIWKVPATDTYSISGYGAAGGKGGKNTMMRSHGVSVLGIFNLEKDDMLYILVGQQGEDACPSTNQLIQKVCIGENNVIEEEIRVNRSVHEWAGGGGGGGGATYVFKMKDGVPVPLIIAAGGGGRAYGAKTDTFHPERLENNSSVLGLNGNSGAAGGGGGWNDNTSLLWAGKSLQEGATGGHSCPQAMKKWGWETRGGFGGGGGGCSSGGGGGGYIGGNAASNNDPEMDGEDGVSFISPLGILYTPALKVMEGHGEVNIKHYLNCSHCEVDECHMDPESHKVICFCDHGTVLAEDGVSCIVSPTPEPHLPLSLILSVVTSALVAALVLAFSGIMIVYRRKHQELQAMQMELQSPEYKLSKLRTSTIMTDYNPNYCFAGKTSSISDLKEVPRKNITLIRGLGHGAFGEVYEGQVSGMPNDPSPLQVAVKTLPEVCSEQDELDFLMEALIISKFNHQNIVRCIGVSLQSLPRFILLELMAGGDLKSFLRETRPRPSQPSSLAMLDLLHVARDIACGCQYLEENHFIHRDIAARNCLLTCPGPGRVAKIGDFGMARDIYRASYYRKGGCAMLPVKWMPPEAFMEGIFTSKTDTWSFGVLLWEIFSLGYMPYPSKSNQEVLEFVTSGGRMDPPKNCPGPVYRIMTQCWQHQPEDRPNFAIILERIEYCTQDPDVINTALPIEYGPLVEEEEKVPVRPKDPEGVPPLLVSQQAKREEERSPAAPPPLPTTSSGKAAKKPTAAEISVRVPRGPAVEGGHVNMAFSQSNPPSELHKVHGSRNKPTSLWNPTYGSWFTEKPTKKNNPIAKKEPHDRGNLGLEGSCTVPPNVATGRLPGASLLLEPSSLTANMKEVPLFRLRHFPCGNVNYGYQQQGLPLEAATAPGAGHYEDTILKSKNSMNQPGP
T5 sequence (P10721 26-976 V560G): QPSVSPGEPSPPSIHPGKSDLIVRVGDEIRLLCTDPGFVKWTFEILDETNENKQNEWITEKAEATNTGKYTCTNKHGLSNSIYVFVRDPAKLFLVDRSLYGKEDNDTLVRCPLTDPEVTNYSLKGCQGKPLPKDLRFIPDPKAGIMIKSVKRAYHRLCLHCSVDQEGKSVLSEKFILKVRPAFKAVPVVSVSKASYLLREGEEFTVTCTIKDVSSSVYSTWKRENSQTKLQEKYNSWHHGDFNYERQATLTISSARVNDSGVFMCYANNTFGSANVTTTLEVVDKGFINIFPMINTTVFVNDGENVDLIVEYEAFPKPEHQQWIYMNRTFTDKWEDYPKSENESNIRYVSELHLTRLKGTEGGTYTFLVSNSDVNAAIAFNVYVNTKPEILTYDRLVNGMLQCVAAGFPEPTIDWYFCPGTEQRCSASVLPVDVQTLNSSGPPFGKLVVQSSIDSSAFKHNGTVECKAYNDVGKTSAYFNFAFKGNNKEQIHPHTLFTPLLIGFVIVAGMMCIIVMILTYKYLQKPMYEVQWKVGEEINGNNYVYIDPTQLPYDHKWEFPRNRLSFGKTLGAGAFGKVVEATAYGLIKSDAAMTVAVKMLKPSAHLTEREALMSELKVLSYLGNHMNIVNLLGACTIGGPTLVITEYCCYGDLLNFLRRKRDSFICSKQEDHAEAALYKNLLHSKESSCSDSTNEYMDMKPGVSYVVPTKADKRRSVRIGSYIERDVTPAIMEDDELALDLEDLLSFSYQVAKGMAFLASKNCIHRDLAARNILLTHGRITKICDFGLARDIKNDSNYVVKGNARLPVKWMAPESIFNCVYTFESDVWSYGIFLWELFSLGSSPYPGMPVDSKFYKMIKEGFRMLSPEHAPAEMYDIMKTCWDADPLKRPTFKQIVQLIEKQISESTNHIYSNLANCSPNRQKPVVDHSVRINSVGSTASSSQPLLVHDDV
T2 sequence (Q14680 whole entry): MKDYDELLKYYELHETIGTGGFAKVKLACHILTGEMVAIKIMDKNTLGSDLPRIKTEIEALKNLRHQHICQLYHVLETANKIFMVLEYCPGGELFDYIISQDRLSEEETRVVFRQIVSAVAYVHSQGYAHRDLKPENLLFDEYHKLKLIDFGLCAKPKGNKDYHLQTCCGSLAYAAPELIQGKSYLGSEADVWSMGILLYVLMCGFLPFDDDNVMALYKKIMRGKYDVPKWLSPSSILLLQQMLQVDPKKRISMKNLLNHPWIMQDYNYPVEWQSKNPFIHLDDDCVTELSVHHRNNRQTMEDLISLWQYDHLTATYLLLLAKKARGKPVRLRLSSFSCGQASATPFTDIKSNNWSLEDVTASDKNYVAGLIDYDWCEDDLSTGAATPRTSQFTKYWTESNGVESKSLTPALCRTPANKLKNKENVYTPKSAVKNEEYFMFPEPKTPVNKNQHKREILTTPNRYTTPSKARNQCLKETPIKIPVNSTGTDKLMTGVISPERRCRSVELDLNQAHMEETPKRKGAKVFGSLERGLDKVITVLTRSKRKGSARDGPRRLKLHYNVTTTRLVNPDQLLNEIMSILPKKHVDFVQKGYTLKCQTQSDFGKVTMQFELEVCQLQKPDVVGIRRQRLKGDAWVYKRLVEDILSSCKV
T3 sequence (P28482 whole entry): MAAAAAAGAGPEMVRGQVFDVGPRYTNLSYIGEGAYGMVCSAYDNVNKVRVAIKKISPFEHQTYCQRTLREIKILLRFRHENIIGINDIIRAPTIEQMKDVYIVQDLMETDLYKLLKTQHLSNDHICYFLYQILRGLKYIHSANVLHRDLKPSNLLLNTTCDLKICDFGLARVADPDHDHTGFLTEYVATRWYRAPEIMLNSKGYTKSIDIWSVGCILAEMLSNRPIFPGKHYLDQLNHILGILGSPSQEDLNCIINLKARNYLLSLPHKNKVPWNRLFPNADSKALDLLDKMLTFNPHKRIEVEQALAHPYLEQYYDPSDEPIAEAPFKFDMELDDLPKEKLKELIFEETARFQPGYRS

In the case of `CC(C)[C@H](NC(=O)c1ccc2[nH]nc(-c3ccc(OC4CC5CCC(C4)N5C4COC4)cc3)c2c1)c1ccccc1Cl` (stereo partly shown) [Example A335], the GI50 in [1] is below 0.1 µM; in the experiment with TICs (Colon 12) it was below 0.1 µM; in the experiment with TICs (Ovarian 2393A), below 0.1 µM; with Breast cancer cells, 0.1 to 0.5 µM; in [2], below 0.1 µM. The inhibition at 1 µM came out at 91% against MUSK; 97% against MELK; 0% at MAPK2; 7% at ALK; 66% against cKit (V560G); 85% against JNK3. Also, the inhibition at 1 µM amounted to 87% against Aurora-B and 42% on Met(Y1248C). Moreover, at human TTK, the IC50 is below 0.1 µM.
As for `CC(C)C[C@@H](NC(=O)c1ccc2[nH]nc(-c3ccc(N4CCN(C5COC5)CC4)cc3)c2c1)c1ccccc1Cl` [Example A300, (R)-N-(1-(2-chlorophenyl)-3-methylbutyl)-3-(4-(4-(oxetan-3-yl)piperazin-1-yl)phenyl)-1H-indazole-5-carboxamide], the GI50 in experiment [1] is below 0.1 µM; in the experiment on TICs (Colon 12), below 0.1 µM; in the experiment with TICs (Ovarian 2393A), 0.1 to 0.5 µM; in the experiment on Breast cancer cells, below 0.1 µM; in [2], below 0.1 µM. Besides, the inhibition at 1 µM against MUSK is 54%; on MELK, 51%; against MAPK2, 5%; on ALK, 0%; against cKit (V560G), 76%; on JNK3 it was 48%. In addition, the inhibition at 1 µM against Aurora-B is 69%; at Met(Y1248C), 40%. The 50% inhibitory concentration (IC50) on human TTK is below 0.1 µM.

For the origin of these results see patent publication US9580390B2, “Indazole compounds as kinase inhibitors and method of treating cancer with same” (University Health Network, priority 2011, dated 2017).
